Our source for the IC50, efflux ratio and Papp A→B values is patent publication US20240059675A1, “PIPERIDINYLPYRIDINYLCARBONITRILE DERIVATIVES AS INHIBITORS OF GLUTAMINYL-PEPTIDE CYCLOTRANSFERASE AND GLUTAMINYL-PEPTIDE CYCLOTRANSFERASE LIKE PROTEIN” (Boehringer Ingelheim International GmbH, priority 2022, published 2024).

The test system of data set [1] is SIRPα signalling induced by Raji cells. Nature of the data set: Assay B: SIRPα signalling assay using Raji cells. In kind it is cell-based. Conditions: Homo sapiens, 48 h compound incubation, Jurkat PathHunter SIRPαV1 reporter cells, read-out: Inhibition of SIRPα signalling induced by Raji cells: IC50. The method, then:
(§1) Two cell types are independently used: the Raji cell line (lymphoblast-like human cell line derived from B lymphocytes from a Burkitt's lymphoma patient in 1963) and A549 cells (adenocarcinomic human alveolar basal epithelial cells).
(§2) Test compounds were dissolved in 100% DMSO and serially diluted into a white 384-well microtiter cell culture plate (PerkinElmer #60076780 in case of Raji assay; PDL-coated plates Greiner #781945 in case of A549 assay). 5000 Raji cells (ATCC #CC86) or 5000 A549 cells (ATCC #CCL-185) in Assay Complete Cell Plating reagent 30 (DiscoverX 93-0563R30B) were added per well. The assay plate was incubated for 48 h at 37° C., 95% humidity and 5% CO2. 15000 reporter cells (Jurkat PathHunter SIRPαV1, DiscoverX #93-1135C19) were added to each well, and the plate was incubated for 5 h at 37° C., 95% humidity and 5% CO2. Bioassay reagent 1 of the PathHunter Bioassay detection kit (DiscoverX 93-0001) was added to each well of the plate using a multichannel pipette followed by a 15 min incubation at room temperature. Afterwards bioassay reagent 2 was added followed by 60 min incubation at room temperature (incubation in the dark).
(§3) The analysis of the data was performed using the luminescence signal generated by beta-galactosidase in the PathHunter reporter cell line. The luminescence measurement was done using a Pherastar Multi-Mode Reader. Dose-response curves & IC50 data were calculated with 4-parameter sigmoidal dose response formula.

A further data set has as its target QPCT (Homo sapiens (Human), UniProt Q16769). Nature of the data set: Assay A: biochemical QPCT activity assay (MALDI-TOF MS, CD47 peptide substrate). Conditions: 0.5 nM enzyme, 20 μM CD47 peptide substrate; read-out: Inhibition of QPCT: IC50.
Another data set has as its target QPCTL (Homo sapiens (Human), UniProt Q9NXS2). Kind of data set: Assay A: biochemical QPCTL activity assay (MALDI-TOF MS, CD47 peptide substrate). Conditions: 0.5 nM enzyme, 10 μM CD47 peptide substrate; read-out: Inhibition of QPCTL: IC50.
Data set [2] deals with SIRPα signalling induced by A549 cells. Kind of data set: Assay B: SIRPα signalling assay using A549 cells. The data set is classed as cell-based. As to conditions: Homo sapiens, 48 h compound incubation, Jurkat PathHunter SIRPαV1 reporter cells, read-out: Inhibition of SIRPα signalling induced by A549 cells: IC50. As for the experimental part: as §1, §2, §3
Data set [3] is described as follows: Assay C: permeability in CACO-2 cells. As to conditions: human, pH 7.2; for efflux ratio: Caco-2, permeability B-A / permeability A-B; for Papp A→B: Caco-2, apical to basolateral. In kind it is in vitro ADME.

Structures are written as SMILES.

Sequence of QPCT (Q16769 29-361): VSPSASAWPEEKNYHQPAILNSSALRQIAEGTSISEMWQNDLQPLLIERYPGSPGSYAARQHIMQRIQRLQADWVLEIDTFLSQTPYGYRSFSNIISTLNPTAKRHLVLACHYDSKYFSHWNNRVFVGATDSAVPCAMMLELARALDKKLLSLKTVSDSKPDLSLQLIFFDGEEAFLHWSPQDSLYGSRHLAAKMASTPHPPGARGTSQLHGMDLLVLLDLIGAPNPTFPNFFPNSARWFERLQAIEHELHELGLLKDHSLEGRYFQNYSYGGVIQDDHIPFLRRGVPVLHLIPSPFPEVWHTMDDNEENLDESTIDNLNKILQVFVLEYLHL
Sequence of QPCTL (Q9NXS2 whole entry): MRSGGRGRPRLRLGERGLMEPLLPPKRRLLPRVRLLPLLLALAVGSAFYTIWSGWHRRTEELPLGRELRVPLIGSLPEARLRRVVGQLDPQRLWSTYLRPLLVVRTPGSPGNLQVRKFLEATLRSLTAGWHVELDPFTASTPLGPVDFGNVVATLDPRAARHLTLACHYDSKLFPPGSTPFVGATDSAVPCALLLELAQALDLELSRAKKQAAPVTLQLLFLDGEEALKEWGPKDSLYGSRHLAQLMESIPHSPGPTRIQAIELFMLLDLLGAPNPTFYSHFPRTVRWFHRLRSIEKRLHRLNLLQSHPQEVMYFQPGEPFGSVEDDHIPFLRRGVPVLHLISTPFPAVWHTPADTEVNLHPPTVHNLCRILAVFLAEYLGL

As to `Cc1cc(C#N)c(N2CCC(F)(c3nncn3C)CC2)c(-c2ccc(F)nc2)n1` [Example 16], the IC50 in data set [1] came to 86 nM; at QPCT it was 4 nM; at QPCTL, 1 nM; in data set [2], 8 nM. Also, in data set [3], the efflux ratio stood at 1.7. Moreover, the Papp A→B in data set [3] amounted to 40 ×10⁻⁶ cm/s.

On to `Cn1cnnc1C1(F)CCN(c2c(C#N)ccnc2-c2cnc3nc(C(C)(C)C)cn3c2)CC1` [Example 13], for which the IC50 in data set [1] worked out at 65 nM; at QPCT, 1 nM; at QPCTL it was 1 nM; in data set [2] it was 22 nM. Besides, the efflux ratio in data set [3] was found to be 35. In data set [3], the Papp A→B was 1 ×10⁻⁶ cm/s.

Take `COc1cc(-c2nccc(C#N)c2N2CCC(F)(c3nncn3C)CC2)cnc1F` [Example 7]: the IC50 in data set [1] turned out to be 214 nM; on QPCT, 12 nM; at QPCTL, 2 nM; in data set [2], 27 nM. In addition, the efflux ratio in data set [3] is 3.3. In addition, the Papp A→B in data set [3] was determined as 18 ×10⁻⁶ cm/s.

With `Cn1cnnc1C1(F)CCN(c2c(C#N)ccnc2-c2cnc(F)c(OC3CC3)c2)CC1` [Example 27], the IC50 in data set [1] stood at 176 nM; on QPCT it was 5 nM; at QPCTL, 3 nM; in data set [2] it was 39 nM. In addition, the efflux ratio in data set [3] was determined as 2. For the same compound, the Papp A→B in data set [3] was 36 ×10⁻⁶ cm/s.

For `Cn1cnnc1C1(F)CCN(c2c(C#N)cc(C(F)(F)F)nc2-c2ccc(F)nc2)CC1` [Example 17], the IC50 was 92 nM in data set [1], 8 nM on QPCT, 4 nM at QPCTL and 49 nM in data set [2]. Moreover, the efflux ratio in data set [3] turned out to be 1.3. In data set [3], this compound gave a Papp A→B of 38 ×10⁻⁶ cm/s.

As to `Cn1cnnc1C1(F)CCN(c2c(C#N)ccnc2-c2cnc3nc(C(F)(F)F)cn3c2)CC1` [Example 15], the IC50 in data set [1] worked out at 59 nM; at QPCT, 1 nM; on QPCTL, 1 nM; in data set [2], 33 nM. In addition, the efflux ratio in data set [3] stood at 14.1. In data set [3], the Papp A→B amounted to 0.9 ×10⁻⁶ cm/s.
